Assay results as given in US6335021B1, “Composition for controlling mood disorders in healthy individuals” (Sigma-Tau HealthScience S.p.A., priority 1997, dated 2002).

Tested on: subjects suffering from dysthymic disorders
Assay: Clinical trial of acetyl L-carnitine in patients with mood disorders classifiable as dysthymia (rating scales, alcohol intake, libido, safety)
Format: in vivo, human
Conditions: for Hamilton Depression Rating Scale (HDRS): basal 13.9 ± 5.3; for Hamilton Anxiety Rating Scale (HARS): basal 18.6 ± 3.8; for Global Functional (or Social Adaptation) Rating (GFR): basal 63.4 ± 6.6; for alcohol-free days: baseline 6±2
From the text: The selection of the patients for this trial consisted in a selection by exclusion, in which the medical history criterion was of paramount importance, with exclusion of all patients presenting episodes of major depression and cyclothymic manifestations classifiable as such on the basis of the DMS criteria.
Subjects were therefore recruited whose mood disorders had been dominated by dysphoric manifestations for at least 4 years, classifiable as dysthymia (DMS IV) and a depressive, irritable, cyclothymic personality or temperament on the basis of DMS IV and AXIS II. A total of 20 patients were selected, 12 males and 8 females, matching up to the above-mentioned criteria, and with a mean age of 26±2 years. Six patients (males) also complained of diminished libido and episodes of impotence, while the 8 female patients complained of loss of libido and anorexia. Eight patients (4 males) reported an increased intake of alcoholic beverages, without clinical complications, in the previous 8 months (mean intake 142±15 g/day) and 6 patients (1 male) reported bulimic episodes resulting in a mean weight gain of 2.1±0.5 kg over the previous 6 months.
Each patient was recruited into the study after 3 repeated visits, at monthly intervals, for the purposes of ruling out other concomitant pathologies or disorders according to DMS IV and AXIS II involving definite abuse of psychotropic substances. The objective neurological examination, current laboratory tests (SMA plus), ECG. BP and chest X-rays were all within normal limits.
None of the patients had been treated with SSRI or tricyclic antidepressants during the previous year. In the course of the month preceding the treatment with acetyl L-carnitine all treatments consisting in administration of benzodiazepines during the daytime were discontinued and only the administration of Lorazepam (2.5 mg) at 9 p.m. was allowed for all patients.
Each patient was administered acetyl L-carnitine 1 g per os twice daily (at breakfast- and lunch-time) for two months.
During the clinical interviews, at entry into the study, on day 45 of administration of acetyl L-carnitine and on day 90 (one month after the end of the treatment), patients were administered the following standardized rating scales: Hamilton Depression Rating Scale (HDRS), Hamilton Anxiety Rating Scale (HARS), Global Functional (or Social Adaptation) Rating (GFR).
For the recording of alcohol intake, a self-administered scale was used to record the alcohol-free days as a percentage of the total and the number of daily alcohol intakes, considering the intake of 10 grams as a single intake, in the month preceding treatment, during the treatment months and in the month following acetyl L-carnitine treatment.

[1] = Day 45 of administration, 1 g per os twice daily
[2] = Day 90 (one month after the end of treatment)

## CC(=O)O[C@H](CC(=O)[O-])C[N+](C)(C)C [acetyl L-carnitine]
Day 45 of administration, 1 g per os twice daily, 20 patients
  Hamilton Depression Rating Scale (HDRS): 9.1 ± 4.8
[1]
  Hamilton Anxiety Rating Scale (HARS): 12.8 ± 4.4
  Global Functional (or Social Adaptation) Rating (GFR): 75.3 ± 7.9
Day 90 (one month after the end of the two-month treatment)
  Hamilton Depression Rating Scale (HDRS): 12.8 ± 5.4
[2]
  Hamilton Anxiety Rating Scale (HARS): 16.9 ± 5.0
  Global Functional (or Social Adaptation) Rating (GFR): 67.7 ± 6.8
All male patients, 15 days after the start of treatment
  symptoms of impotence and diminished libido: disappearance of symptoms of impotence and diminished libido
During the two months of treatment, on average, self-administered scale
  alcohol-free days: 16±3
End of treatment
  changes in laboratory tests, BP and ECG as compared to pre-treatment conditions: no significant changes
End of two-month treatment, 1 g per os twice daily
  laboratory tests performed at the end of treatment: normal values
In the month after treatment
  alcohol-free days: 8±2
Subjects suffering from dysthymic disorders, conclusion of the clinical trial
  expression of the depressive behavioural component: significantly reduces
Under treatment, as against 7.8±1.2
  mean number of alcohol intakes (10 grams = a single intake): 6.1±2.1
